Measured values published in publication PMC8355706, “CK-3, A Novel Methsulfonyl Pyridine Derivative, Suppresses Hepatocellular Carcinoma Proliferation and Invasion by Blocking the PI3K/AKT/mTOR and MAPK/ERK Pathways” (Frontiers in Oncology, 2021).
pIC50: −log10 of the molar value.

Key:
Type in all cases: biochemical
ERK = molecular target: T1, ERK; experiment: kinase activity profile; ERK assay not described
T1 construct: gene MAPK1; enzyme source and assay not described; ERK2 used only for docking
Text: kinase activity profile; ERK assay not described on ERK

PI3Kα = molecular target: T2, PI3Kα (Homo sapiens, UniProt P42336); experiment: PI3K-Glo ADP detection kinase assay
T2 construct: gene PIK3CA; with Phosphatidylinositol 3-kinase regulatory subunit alpha
Text: PI3K-Glo ADP detection kinase assay on PI3Kα

PI3Kγ = molecular target: T3, PI3Kγ (Homo sapiens, UniProt P48736); experiment: PI3K-Glo ADP detection kinase assay
T3 construct: gene PIK3CG
Text: PI3K-Glo ADP detection kinase assay on PI3Kγ

PI3Kβ = molecular target: T4, PI3Kβ (Homo sapiens, UniProt P42338); experiment: PI3K-Glo ADP detection kinase assay
T4 construct: gene PIK3CB; with Phosphatidylinositol 3-kinase regulatory subunit alpha
Text: PI3K-Glo ADP detection kinase assay on PI3Kβ

PI3Kδ = molecular target: T5, PI3Kδ (Homo sapiens, UniProt O00329); experiment: PI3K-Glo ADP detection kinase assay
T5 construct: gene PIK3CD; with Phosphatidylinositol 3-kinase regulatory subunit alpha
Text: PI3K-Glo ADP detection kinase assay on PI3Kδ

T3 sequence (P48736 whole entry): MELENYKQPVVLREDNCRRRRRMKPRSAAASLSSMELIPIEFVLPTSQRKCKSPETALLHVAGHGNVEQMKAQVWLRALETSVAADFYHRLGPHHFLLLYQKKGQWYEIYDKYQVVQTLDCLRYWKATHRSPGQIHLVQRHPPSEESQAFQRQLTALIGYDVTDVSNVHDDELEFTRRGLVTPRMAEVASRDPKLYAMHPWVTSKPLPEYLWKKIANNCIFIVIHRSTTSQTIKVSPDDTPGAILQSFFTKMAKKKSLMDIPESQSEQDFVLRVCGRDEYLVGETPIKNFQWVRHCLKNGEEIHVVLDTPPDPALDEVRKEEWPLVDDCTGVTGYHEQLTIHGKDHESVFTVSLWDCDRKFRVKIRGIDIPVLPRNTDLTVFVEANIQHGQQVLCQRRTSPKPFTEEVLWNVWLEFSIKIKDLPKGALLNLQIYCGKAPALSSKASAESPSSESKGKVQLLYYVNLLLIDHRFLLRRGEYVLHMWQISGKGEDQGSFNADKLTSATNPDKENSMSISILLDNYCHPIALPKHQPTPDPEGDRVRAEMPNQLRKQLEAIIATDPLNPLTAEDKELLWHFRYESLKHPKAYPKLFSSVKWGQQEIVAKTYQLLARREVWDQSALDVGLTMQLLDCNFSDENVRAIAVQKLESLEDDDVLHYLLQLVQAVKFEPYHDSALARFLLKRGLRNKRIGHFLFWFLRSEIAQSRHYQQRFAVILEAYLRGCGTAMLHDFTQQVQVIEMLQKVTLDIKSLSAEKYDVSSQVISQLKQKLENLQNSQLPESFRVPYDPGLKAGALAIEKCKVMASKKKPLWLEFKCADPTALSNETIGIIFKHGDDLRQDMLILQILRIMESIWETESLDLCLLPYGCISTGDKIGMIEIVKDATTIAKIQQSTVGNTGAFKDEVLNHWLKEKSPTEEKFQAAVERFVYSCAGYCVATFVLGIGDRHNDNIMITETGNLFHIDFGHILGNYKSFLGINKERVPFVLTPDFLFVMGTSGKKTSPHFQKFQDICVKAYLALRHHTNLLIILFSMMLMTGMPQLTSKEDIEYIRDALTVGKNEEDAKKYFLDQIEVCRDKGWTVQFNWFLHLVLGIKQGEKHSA
T5 sequence (O00329 whole entry): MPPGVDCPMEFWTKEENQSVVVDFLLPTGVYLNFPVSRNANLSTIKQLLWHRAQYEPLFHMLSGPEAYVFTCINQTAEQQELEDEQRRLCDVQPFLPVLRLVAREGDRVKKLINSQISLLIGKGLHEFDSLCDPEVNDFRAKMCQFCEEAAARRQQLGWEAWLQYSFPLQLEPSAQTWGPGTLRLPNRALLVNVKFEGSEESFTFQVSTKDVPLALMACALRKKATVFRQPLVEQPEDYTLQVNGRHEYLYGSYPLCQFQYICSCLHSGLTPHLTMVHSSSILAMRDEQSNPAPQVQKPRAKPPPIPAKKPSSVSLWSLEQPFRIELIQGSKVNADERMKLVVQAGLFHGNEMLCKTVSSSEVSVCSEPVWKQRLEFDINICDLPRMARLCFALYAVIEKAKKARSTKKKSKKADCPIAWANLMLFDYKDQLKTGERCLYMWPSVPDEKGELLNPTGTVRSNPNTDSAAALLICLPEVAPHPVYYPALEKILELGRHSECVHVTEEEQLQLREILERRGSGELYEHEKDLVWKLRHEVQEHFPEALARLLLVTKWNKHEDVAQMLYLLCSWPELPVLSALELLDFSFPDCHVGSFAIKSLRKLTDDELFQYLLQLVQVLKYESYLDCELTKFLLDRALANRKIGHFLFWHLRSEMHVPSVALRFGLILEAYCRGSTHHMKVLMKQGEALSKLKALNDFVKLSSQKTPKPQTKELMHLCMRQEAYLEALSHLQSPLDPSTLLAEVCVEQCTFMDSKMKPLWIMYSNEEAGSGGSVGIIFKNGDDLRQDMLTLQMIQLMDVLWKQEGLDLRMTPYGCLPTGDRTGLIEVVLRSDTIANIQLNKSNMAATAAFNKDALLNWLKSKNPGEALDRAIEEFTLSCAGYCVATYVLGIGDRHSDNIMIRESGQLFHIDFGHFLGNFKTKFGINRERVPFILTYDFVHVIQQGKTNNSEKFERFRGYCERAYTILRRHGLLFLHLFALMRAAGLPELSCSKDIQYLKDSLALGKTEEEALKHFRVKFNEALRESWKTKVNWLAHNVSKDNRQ
T5 sequence (P27986 2-724 partner): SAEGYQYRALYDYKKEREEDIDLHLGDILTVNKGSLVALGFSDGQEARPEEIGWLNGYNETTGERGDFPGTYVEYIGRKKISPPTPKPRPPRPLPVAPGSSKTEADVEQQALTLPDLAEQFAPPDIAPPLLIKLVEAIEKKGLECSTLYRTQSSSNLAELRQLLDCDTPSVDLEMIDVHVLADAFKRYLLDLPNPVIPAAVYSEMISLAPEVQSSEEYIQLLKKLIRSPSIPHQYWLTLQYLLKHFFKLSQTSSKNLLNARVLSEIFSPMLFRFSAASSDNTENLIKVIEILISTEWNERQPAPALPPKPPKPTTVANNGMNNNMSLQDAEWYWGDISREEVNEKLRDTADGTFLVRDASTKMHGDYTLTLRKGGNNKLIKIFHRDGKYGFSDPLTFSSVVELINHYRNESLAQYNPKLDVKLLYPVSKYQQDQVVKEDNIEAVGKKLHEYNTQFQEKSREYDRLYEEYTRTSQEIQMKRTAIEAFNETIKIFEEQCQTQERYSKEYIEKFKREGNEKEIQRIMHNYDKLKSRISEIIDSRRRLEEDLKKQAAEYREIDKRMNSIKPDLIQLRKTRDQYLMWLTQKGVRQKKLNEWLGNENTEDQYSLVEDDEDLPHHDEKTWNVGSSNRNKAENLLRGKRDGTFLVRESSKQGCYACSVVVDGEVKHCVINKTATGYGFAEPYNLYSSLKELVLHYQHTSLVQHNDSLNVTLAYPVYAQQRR
T2 sequence (P42336 whole entry): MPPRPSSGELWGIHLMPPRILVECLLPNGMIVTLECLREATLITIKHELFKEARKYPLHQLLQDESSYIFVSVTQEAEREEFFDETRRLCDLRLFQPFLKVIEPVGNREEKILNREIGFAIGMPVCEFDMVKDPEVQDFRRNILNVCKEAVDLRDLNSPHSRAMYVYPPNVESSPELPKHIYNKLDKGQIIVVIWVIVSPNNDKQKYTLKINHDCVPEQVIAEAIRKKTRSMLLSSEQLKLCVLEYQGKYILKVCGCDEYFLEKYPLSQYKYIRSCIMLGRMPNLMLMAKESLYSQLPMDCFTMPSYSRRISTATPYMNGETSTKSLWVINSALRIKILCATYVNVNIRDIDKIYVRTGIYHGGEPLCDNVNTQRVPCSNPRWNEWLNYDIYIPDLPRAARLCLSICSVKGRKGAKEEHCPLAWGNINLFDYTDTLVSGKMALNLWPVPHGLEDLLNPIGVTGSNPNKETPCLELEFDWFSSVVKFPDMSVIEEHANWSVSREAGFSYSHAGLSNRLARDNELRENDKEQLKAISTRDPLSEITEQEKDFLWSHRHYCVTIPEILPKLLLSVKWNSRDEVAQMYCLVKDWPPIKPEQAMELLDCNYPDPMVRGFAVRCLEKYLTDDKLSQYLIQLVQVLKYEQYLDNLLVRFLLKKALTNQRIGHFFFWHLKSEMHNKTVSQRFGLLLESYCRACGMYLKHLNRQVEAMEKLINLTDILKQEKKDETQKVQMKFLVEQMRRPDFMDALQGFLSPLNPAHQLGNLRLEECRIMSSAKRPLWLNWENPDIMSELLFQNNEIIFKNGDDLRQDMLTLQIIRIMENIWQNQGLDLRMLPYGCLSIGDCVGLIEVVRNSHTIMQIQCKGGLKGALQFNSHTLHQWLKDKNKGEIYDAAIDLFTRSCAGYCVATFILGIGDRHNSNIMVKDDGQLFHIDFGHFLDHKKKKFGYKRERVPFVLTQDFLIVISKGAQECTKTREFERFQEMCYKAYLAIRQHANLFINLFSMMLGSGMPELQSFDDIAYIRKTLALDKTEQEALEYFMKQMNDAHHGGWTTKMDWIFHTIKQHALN
T2 sequence (P27986 2-724 partner): as the sequence (P27986 2-724 partner) above
T4 sequence (P42338 whole entry): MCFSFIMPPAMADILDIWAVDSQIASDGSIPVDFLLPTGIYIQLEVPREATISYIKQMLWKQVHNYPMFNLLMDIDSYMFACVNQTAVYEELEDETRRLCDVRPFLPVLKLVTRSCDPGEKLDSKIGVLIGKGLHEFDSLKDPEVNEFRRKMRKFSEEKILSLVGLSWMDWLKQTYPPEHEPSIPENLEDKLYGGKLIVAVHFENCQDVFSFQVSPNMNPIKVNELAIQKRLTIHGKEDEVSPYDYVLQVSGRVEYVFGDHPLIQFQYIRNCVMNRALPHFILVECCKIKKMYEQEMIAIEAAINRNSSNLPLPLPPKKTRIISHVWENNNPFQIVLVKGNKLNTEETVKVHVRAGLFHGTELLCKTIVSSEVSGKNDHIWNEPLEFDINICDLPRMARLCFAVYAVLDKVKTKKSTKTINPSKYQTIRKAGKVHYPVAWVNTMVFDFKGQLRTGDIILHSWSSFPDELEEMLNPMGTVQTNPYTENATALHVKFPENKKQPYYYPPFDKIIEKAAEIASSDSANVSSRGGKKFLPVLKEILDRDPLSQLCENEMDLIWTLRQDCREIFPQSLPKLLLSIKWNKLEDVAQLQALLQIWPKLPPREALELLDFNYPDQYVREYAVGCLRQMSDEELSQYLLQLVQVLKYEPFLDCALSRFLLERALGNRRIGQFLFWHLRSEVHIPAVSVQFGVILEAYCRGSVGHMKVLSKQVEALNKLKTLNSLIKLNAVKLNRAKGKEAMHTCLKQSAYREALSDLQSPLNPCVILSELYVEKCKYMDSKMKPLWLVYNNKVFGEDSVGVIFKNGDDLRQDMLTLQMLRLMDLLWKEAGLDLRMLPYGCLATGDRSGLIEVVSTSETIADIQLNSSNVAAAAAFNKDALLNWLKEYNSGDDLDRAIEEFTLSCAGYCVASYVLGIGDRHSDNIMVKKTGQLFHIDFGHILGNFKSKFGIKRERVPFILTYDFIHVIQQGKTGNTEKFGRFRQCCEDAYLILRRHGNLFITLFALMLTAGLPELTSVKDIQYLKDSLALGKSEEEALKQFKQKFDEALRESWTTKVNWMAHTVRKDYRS
T4 sequence (P27986 2-724 partner): as the sequence (P27986 2-724 partner) above

pIC50 (ERK): 5.25
pIC50 (PI3Kα): 5.17
pIC50 (PI3Kγ): < 5.00
pIC50 (PI3Kβ): < 5.00
pIC50 (PI3Kδ): 5.33
SMILES: COc1ncc(-c2ccc(NC(=O)/C=C/c3cccnc3)c(-n3ccnc3)c2)cc1NS(C)(=O)=O [CK-3]
